This is an account of results in US5705523A, “Pyridine- and imidazole-derived agents for cardiovascular diseases” (Pfizer Inc., priority 1991, dated 1998).

Broadly, the IC50 is the concentration at which inhibition is half-maximal.

For one experiment, the system named is PGI2 synthetase. To be noted: pre-incubation with pig aorta microsomes; result in words; cited from earlier work.
A further experiment concerns the target T1, thromboxane A2 receptor (Rattus norvegicus, UniProt P34978).
T1 construct: Spirally cut rat aortic strips; from tissue; host or cells: rat aorta (spirally cut strips)
T1 sequence (P34978 1-341): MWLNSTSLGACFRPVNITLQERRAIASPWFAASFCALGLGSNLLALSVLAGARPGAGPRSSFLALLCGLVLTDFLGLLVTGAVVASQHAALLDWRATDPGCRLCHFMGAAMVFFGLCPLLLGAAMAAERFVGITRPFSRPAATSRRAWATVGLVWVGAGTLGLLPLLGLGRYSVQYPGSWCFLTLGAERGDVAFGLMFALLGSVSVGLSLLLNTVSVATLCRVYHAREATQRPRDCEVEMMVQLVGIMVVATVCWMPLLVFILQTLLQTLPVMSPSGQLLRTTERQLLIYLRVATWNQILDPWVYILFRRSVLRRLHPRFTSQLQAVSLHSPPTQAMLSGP
The experiment can be described thus: Thromboxane A2 receptor antagonism (U-46619 contraction of rat aortic strips). The class given is cell-based. To be noted: agonist U-46619, in vitro, read-out: T×A2 antagonist activity: pA2 (converted). As for the experimental part: Spirally cut rat aortic strips, mounted for isometric tension recording in 20 ml organ baths, are bathed in Krebs-bicarbonate solution at 37° C. Following an incubation period of 2 hours under 1 gram resting tension, the tissues are pre-treated with U-46619 (a thromboxane A2 receptor agonist) for 10 minutes, then washed and the tissues allowed to equilibrate for a further 1 hour. Cumulative doses of U-46619 over the range 1 nM-100 nM are sequentially included in the bathing fluid and increases in the tissue tension noted.
The test compounds are incubated with the tissue for 15 minutes prior to repeating the cumulative dosing of U-46619 and the ability of the compound to antagonize the thromboxane A2 receptor is determined from the dose-response curves for U-46619 in the presence of varied concentrations of the test compound.

The target of experiment [1] is T2, thromboxane A2 synthetase (Homo sapiens, UniProt P24557).
T2 construct: Indomethacin pretreated human platelet microsomes; from tissue; host or cells: human platelets (microsomes)
T2 sequence (P24557 1-533): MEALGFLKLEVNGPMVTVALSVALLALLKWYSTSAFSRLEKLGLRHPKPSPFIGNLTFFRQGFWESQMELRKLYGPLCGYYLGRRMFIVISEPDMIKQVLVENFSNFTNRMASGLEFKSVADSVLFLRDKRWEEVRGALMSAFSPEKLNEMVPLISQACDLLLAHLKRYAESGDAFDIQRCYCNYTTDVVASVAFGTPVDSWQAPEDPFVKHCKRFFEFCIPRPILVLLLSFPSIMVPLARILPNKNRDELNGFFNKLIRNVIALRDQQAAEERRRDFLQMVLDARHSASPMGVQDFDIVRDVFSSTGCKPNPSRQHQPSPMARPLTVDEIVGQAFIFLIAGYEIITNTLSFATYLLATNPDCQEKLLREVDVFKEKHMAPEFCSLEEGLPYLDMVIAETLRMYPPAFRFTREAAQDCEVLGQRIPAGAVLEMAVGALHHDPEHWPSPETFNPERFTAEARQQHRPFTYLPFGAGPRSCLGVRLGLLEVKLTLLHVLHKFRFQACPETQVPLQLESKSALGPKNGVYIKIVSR
As to the kind of experiment: Thromboxane A2 (T×A2) synthetase inhibition (T×B2 production, radioimmunoassay). The class given is biochemical. To be noted: human platelet microsomes, in vitro; read-out: T×A2 synthetase inhibitory activity: IC50. As for the experimental part:
Ram seminal vesicle microsomes (Biochemistry, 1971, 10, 2372) are incubated with arachidonic acid (100.0 μM) for 1.0 minute at 22° C. to produce endoperoxide (PGH2). Aliquots of PGH2 are incubated for 30 seconds at 22° C. with pig aorta microsomes (Nature, 1976, 263, 663) and the reaction terminated with five volumes of ethanol. PGI2 production is assessed by measuring its stable breakdown product 6-keto-PGF1α, using a specific radioimmunoassay.
Indomethacin pretreated human platelet microsomes (Science 1976, 193, 163) are incubated for 2 minutes at 0° C. with PGH2 (produced as in 1) and the reaction terminated with 5 volumes of ethanol. T×A2 production is assessed by measuring its stable metabolite T×B2,using a specific radioimmunoassay.
The test compound is pre-incubated with enzyme for 5 minutes, and its ability to inhibit the thromboxane A2 synthetase enzyme is measured as the reduction of T×A2 (T×B2) production.

`CCCCCC(/C=C/C=C\C/C=C\C/C=C\CCCC(=O)O)OO` (stereo not shown) [15-hydroperoxyarachidonic acid]: the “inhibition of PGI2 production by PGI2 synthetase” value in the experiment with PGI2 synthetase is “completely inhibited”.

Take `O=C(O)CCc1cc(CCNS(=O)(=O)c2ccc(Cl)cc2)cc(Cc2cccnc2)c1` [Example 48, 3-{3-[2-(4-Chlorophenylsulphonylamino)ethyl]-5-(3-pyridylmethyl)phenyl}propanoic acid]: at thromboxane A2 receptor, the Kb is 0.407 nM. The IC50 in experiment [1] was determined as 39 nM.

With `O=C(O)CCc1cc(CCNS(=O)(=O)c2ccc(Br)cc2)cc(Cc2cccnc2)c1` [Example 49, 3-{3-[2-(4-Bromophenylsulphonylamino)ethyl]-5-(3-pyridylmethyl)phenyl}propanoic acid], on thromboxane A2 receptor, the Kb is 0.363 nM. In experiment [1], the concentration for half-maximal inhibition (IC50) was found to be 49 nM.

Take `O=C(O)CCc1cc(CCNS(=O)(=O)c2ccccc2)cc(Oc2cccnc2)c1` [Example 61, 3-[3(2-Phenylsulphonylamino)ethyl-5-(3-pyridyloxy)phenyl]propanoic acid]: the Kb on thromboxane A2 receptor is 0.871 nM. For the same compound, in experiment [1], the IC50 came to 38 nM.

Consider `O=C(O)CCc1cc(CCNS(=O)(=O)c2ccc(Cl)cc2)cc(Oc2cccnc2)c1` [Example 62, 3-{3-[2-(4-Chlorophenylsulphonylamino)ethyl]-5-(3-pyridyloxy)phenyl}propanoic acid], for which the Kb on thromboxane A2 receptor was 0.398 nM. Further, the IC50 in experiment [1] worked out at 37 nM.

For `CC(O)(c1cccnc1)c1cc(CCNS(=O)(=O)c2ccc(Cl)cc2)cc(CCC(=O)O)c1` (stereo not shown) [Example 67], the Kb at thromboxane A2 receptor was 0.851 nM. For the same compound, the 50% inhibitory concentration (IC50) in experiment [1] was 61 nM.

As for `C=C(c1cccnc1)c1cc(CCNS(=O)(=O)c2ccccc2)cc(CCC(=O)O)c1` [Example 82, 3-{3-(2-Phenylsulphonylamino)ethyl-5-[1-(3-pyridyl)ethenyl]phenyl}propanoic acid], at thromboxane A2 receptor, the Kb was 0.759 nM. Also, the half-maximal inhibitory concentration (IC50) in experiment [1] was 50 nM.

With `C=C(c1cccnc1)c1cc(CCNS(=O)(=O)c2ccc(Cl)cc2)cc(CCC(=O)O)c1` [Example 83, 3-{3-[2-(4-Chlorophenylsulphonylamino)ethyl]-5-[1-(3-pyridyl)ethenyl]phenyl}propanoic acid], the Kb at thromboxane A2 receptor is 0.0977 nM. For the same compound, the half-maximal inhibitory concentration (IC50) in experiment [1] amounted to 53 nM.

Consider `CC(c1cccnc1)c1cc(CCNS(=O)(=O)c2ccccc2)cc(CCC(=O)O)c1` (stereo not shown) [Example 84, 3-{3-(2-Phenylsulphonylamino)ethyl-5-[1-(3-pyridyl)ethyl]phenyl}propanoic acid], for which the Kb on thromboxane A2 receptor is 0.186 nM. Besides, the concentration for half-maximal inhibition (IC50) in experiment [1] is 44 nM.

`CC(c1cccnc1)c1cc(CCNS(=O)(=O)c2ccc(Cl)cc2)cc(CCC(=O)O)c1` (stereo not shown) [Example 85, 3-{3-[2-(4-Chlorophenylsulphonylamino)ethyl]-5-[1-(3-pyridyl)ethyl]phenyl}propanoic acid]: the Kb at thromboxane A2 receptor was 0.0692 nM. Besides, in experiment [1], the IC50 was 38 nM.
